Test system: recombinant guanylate cyclase reporter cell line
Assay: Effect on a recombinant guanylate cyclase reporter cell line
Assay type: cell-based
Conditions: in some cases mean values from individual determinations, read-out: MEC (minimum effective concentration)
Procedure: B-2. Effect on a Recombinant Guanylate Cyclase Reporter Cell Line
The cellular activity of the compounds according to the invention is determined using a recombinant guanylate cyclase reporter cell line, as described in F. Wunder et al., Anal. Biochem. 339, 104-112 (2005).
Representative MEC values (MEC=minimum effective concentration) for the compounds of the invention are shown in the table below (in some cases as mean values from individual determinations): […]

Structure (SMILES)	minimal effective concentration [µM]
CCCC[C@H](CO)NC(=O)c1cc(C)nc2c(OCc3c(F)cccc3F)cccc12 [Example 46, ent-8-[(2,6-Difluorobenzyl)oxy]-N-[(2R)-1-hydroxyhexan-2-yl]-2-methylquinoline-4-carboxamide (Enantiomer)]	2
Cc1cc(OCc2c(F)cccc2F)c2nccc(C(=O)N[C@@](C)(CO)c3nnc(C)s3)c2c1 [Example 48, ent-8-[(2,6-Difluorobenzyl)oxy]-N-[(2S)-1-hydroxy-2-(5-methyl-1,3,4-thiadiazol-2-yl)propan-2-yl]-6-methylquinoline-4-carboxamide]	3
